In PMC7279002, “Novel 3′-Substituted-1′,2′,4′-Oxadiazole Derivatives of 18βH-Glycyrrhetinic Acid and Their O-Acylated Amidoximes: Synthesis and Evaluation of Antitumor and Anti-Inflammatory Potential In Vitro and In Vivo” (International Journal of Molecular Sciences, 2020):
“Also recorded” adds a separate entry of the source.

Columns and labels:
[1] = tested on: activated caspases in HeLa cells; assay: Metacaspases activity assay (FITC-VAD-FMK); format: cell-based, human; conditions: dose-dependent
Method: The activity of caspases was determined by using a CaspACE^TM FITC-VAD-FMK (Promega, Madison, WI, USA). Briefly, HeLa cells were cultured in 24-well plates for 24 h under standard conditions and treated by 5f at 7 or 10 µM for 48 h. The cells were collected and incubated with fluorophore-conjugated pancaspase inhibitor FITC-VAD-FMK in darkness for 30 min at room temperature. After incubation, the cells were centrifuged, washed twice with PBS, and analyzed by flow cytometry. For each sample, 10,000 events were acquired.

HeLa cells [2] = assay: Cell motility by xCelligence (CIM-plate); format: cell-based, human; conditions: 0.5 µM, 48 h, nontoxic concentration
Method: HeLa cells were seeded in tetraplicate at 2 × 10^4 cells per well in the upper chamber of CIM-plates, in the presence or absence of 5f at 0.5 µM. To stimulate cell migration, the lower chamber of the CIM-plate contained 10% FBS as chemoattractant. The cell index (electrical impedance) was monitored by the Real-Time Cell Analyzer Dual Plates (RTCA DP) xCelligence System (ACEA Biosciences, San Diego, CA, USA) every 1 h for 48 h.

HeLa cells [3] = assay: Colony-forming assay; format: cell-based, human; conditions: 14 days
Method: HeLa cells were seeded in 96-well plates in tetraplicates at a density of 100 cells/well and treated by 5f (0.25, 0.5 µM) for 14 days under standard conditions. Then cell colonies were fixed with 4% paraformaldehyde, stained with crystal violet dye (0.1% w/v), and photographed using a Vilber Lourmat transilluminator (Marne La Vallee, France). The percentage of area covered by cell colonies was calculated using a ColonyArea ImageJ plugin [91].

B16 melanoma = assay: Metastatic model of murine B16 melanoma in C57Bl/6 mice; format: in vivo; conditions: five injections; for decrease of the numbers of surface metastases in the lungs: day 14
Method: (§1) To generate a metastatic model of tumor progression, 10^5 B16 melanoma cells suspended in 0.2 mL of saline buffer were inoculated into the lateral tail vein of C57Bl/6 mice. On day 4 after tumor transplantation, mice were divided into three groups (n = 9 per group): (1) mice without treatment (control); (2) mice who received intraperitoneal (i.p.) injections of 10% Tween-80 (vehicle); and (3) mice who received i.p. injections of 5f in 10% Tween-80 at a dose of 50 mg/kg. The treatment was carried out three times a week. The total number of injections was five. Mice were sacrificed on day 14 after B16 melanoma transplantation and the lungs were collected for calculation of surface metastases.
To study the antimetastatic action of 5f, evaluation of surface metastases in lungs of B16 melanoma bearing mice was carried out. Surface metastases in the lungs were counted using a binocular microscope. Inhibition of metastases development was assessed using the metastasis inhibition index (MII), calculated according to the formula: MII=(∑n(N¯control−Nn)×100% /N¯control)/n, where N is the number of surface metastases and n is the number of mice in the analyzed group. The MII of the control group was taken as 0% and the MII reflecting the absence of metastases was taken as 100%.

[4] = Toxicity assessment in B16 melanoma-bearing mice; format: in vivo; conditions: five injections, 50 mg/kg i.p.
Method: as §1
During the experiment, general status of the animals and body weight were monitored. At the end of the experiment, organs were collected and organ indexes were calculated as (organ weight / body weight) × 100%.

[5] = tested on: caspase-3/7 in HeLa cells; assay: Executioner caspases-3/7 activity assay (Caspase-Glo 3/7); format: cell-based, human; conditions: 48 h
Method: The activity of caspase-3/7 in HeLa cells was evaluated using a Caspase-Glo® 3/7 assay kit (Promega, Madison, WI, USA) according to manufacturer’s instructions. […] After incubation, 100 µL of Caspase-Glo® 3/7 Reagent was added to each wells, the plate was carefully shaken on a plate mixer, then incubated for 30 min in darkness at room temperature. The luminescence was measured using a luminometer (CLARIOstar plate reader (BMG Labtech, Ortenberg, Germany)).

HeLa cells [6] = assay: Apoptosis assay by flow cytometry (annexin V-FITC/PI); format: cell-based, human; conditions: 48 h
Method: HeLa cells were seeded in 24-well plates at density of 5 × 10^4 cells per well and incubated under standard conditions for 24 h. Next, the cells were treated by compound 5f at 7 or 10 µM for a subsequent 48 h, followed by dissociation of cell monolayers into single cells by TrypLE Express (Gibco, Taastrup, Denmark) - and washing with cold PBS. Thereafter, cells were resuspended in binding buffer at concentration of 10^6 cells/mL. After double staining with Annexin V-FITC and propidium iodide (PI) from an Annexin V-FITC Apoptosis Detection Kit (Millipore, Bedford, MA, USA), cells were analyzed using a NovoCyte Flow Cytometer (ACEA Biosciences Inc., San Diego, CA, USA). For each sample, 10,000 events were acquired.

HeLa cells [7] = assay: Mitochondrial membrane potential (JC-1, flow cytometry); format: cell-based, human; conditions: 48 h, JC-1, HeLa
Method: HeLa cells were cultured in 24-well plates for 24 h under standard conditions and treated by 5f at 7 or 10 µM for a subsequent 48 h. After the treatment, the cells were collected and resuspended at 10^6 cells/mL in PBS-contained JC-1 (5 µg/mL). After 30 min of incubation under standard conditions, the cells were centrifuged, washed with PBS, and analyzed using the NovoCyte Flow Cytometer (ACEA Biosciences Inc., San Diego, CA, USA). In total, 10,000 events were acquired for each sample.

CC1(C)C2CC[C@]3(C)C(C(=O)C=C4[C@@H]5C[C@@](C)(c6nc(-c7ccccn7)no6)CC[C@]5(C)CC[C@]43C)[C@@]2(C)CC[C@@H]1O (stereo partly drawn) [Compound 5f, 30-nor-3β-hydroxy-11-oxo-20-(3′-(pyridin-2′′-yl)-1′,2′,4′-oxadiazol-5′-yl)-18βH-olean-12-en]
metacaspase activation (FITC-VAD-FMK fluorescence) [1]: significantly increased the intensity of FITC fluorescence | effect on motility of HeLa cells (HeLa cells [2]): statistically significant suppressed the motility of HeLa cells | suppression of colony formation compared to the control (HeLa cells [3]; 0.5 µM): three-fold | effect on clonogenic characteristics (HeLa cells [3]; lower concentration (0.25 µM)): had no effect on the clonogenic characteristics of HeLa cells | mice with kidney metastases (B16 melanoma; 50 mg/kg i.p.): 2/9 | mice with liver metastases (B16 melanoma; 50 mg/kg i.p.): 1/9 | decrease of the numbers of surface metastases in the lungs (B16 melanoma; 50 mg/kg i.p., compared to untreated control animals): 4.5 times | decrease of the numbers of surface metastases in the lungs (B16 melanoma; 50 mg/kg i.p., compared to vehicle-treated animals): 3.4 times | metastasis inhibition index (MII) (B16 melanoma; 50 mg/kg i.p., relative to untreated control): 77.7 ± 4.7% | suppression of metastasis growth compared to the vehicle-treated control (B16 melanoma; 50 mg/kg): 70% | survival during the experiment [4]: all 5f-treated mice were alive | toxic effects in mice (organ indexes) ([4]; 50 mg/kg): did not cause toxic and unspecific immunomodulatory effects; also recorded: without systemic toxicity | increase of caspase-3/7 activity in comparison with control ([5]; 5 µM): 1.3 times | increase of caspase-3/7 activity in comparison with control ([5]; 7 µM): 1.9 times | early apoptotic cells (quadrant Q4-4) (HeLa cells [6]; 7 µM): 12.5% | late apoptotic cells (quadrant Q4-2) (HeLa cells [6]; 7 µM): 60.7% | early apoptotic cells (quadrant Q4-4) (HeLa cells [6]; 10 µM): 8.1% | late apoptotic cells (quadrant Q4-2) (HeLa cells [6]; 10 µM): 66.5% | necrotic cells (quadrant Q4-1) (HeLa cells [6]; 10 µM): 14.2% | cells with collapsed membrane potential (gate P3) (HeLa cells [7]; 7 µM): 72.5% | cells with collapsed membrane potential (gate P3) (HeLa cells [7]; 10 µM): 85.2%
